Read-outs that look alike come from different tables or passages of the source. Values belong to the compound of their own block, whether it stands above or below them.
Experiments:
Assay type in all cases: cell-based
[1] = tested on: SKBr3 (estrogen receptor negative, Her2 over-expressing breast cancer cells); test: Anti-proliferation assay (MTS/PMS, 72 h), SKBr3
Experimental: (§1) Cells were maintained in a 1:1 mixture of Advanced DMEM/F12 (Gibco) supplemented with non-essential amino acids, L-glutamine (2 mM), streptomycin (500 μg/mL), penicillin (100 units/mL), and 10% FBS. Cells were grown to confluence in a humidified atmosphere (37° C., 5% CO2), seeded (2000/well, 100 μL) in 96-well plates, and allowed to attach overnight. Compound at varying concentrations in DMSO (1% DMSO final concentration) was added, and cells were returned to the incubator for 72 h. At 72 h, the number of viable cells was determined using an MTS/PMS cell proliferation kit (Promega) per the manufacturer's instructions. Cells incubated in 1% DMSO were used at 100% proliferation, and values were adjusted accordingly. IC50 values were calculated from separate experiments performed in triplicate using GraphPad Prism.
(§2) The anti-proliferative activity of these compounds is evaluated against two breast cancer cell lines, SKBr3 (estrogen receptor negative, Her2 over-expressing breast cancer cells) and MCF-7 (estrogen receptor positive breast cancer cells).

[2] = tested on: MCF-7 (estrogen receptor positive breast cancer cells); test: Anti-proliferation assay (MTS/PMS, 72 h), MCF-7
Experimental: as §1, §2

[3] = tested on: HCT-116; test: Anti-proliferation assay, HCT-116; conditions: Table 9, non-aryl ureas
Experimental: as §1

[4] = tested on: PC-3; test: Anti-proliferation assay, PC-3; conditions: Prostate Cancer
Experimental: as §1

[5] = tested on: A-549; test: Anti-proliferation assay, A-549
Experimental: as §1

[6] = tested on: MDA1986; test: Anti-proliferation assay, MDA1986; conditions: HSNCC
Experimental: as §1

[7] = tested on: JMAR; test: Anti-proliferation assay, JMAR; conditions: HSNCC
Experimental: as §1

[8] = tested on: MDAMB231; test: Anti-proliferation assay, MDAMB231; conditions: Tri-Neg
Experimental: as §1

[9] = tested on: DRO81-1; test: Anti-proliferation assay, DRO81-1; conditions: Thyroid
Experimental: as §1

[10] = tested on: MRC5; test: Anti-proliferation assay, MRC5 (normal)
Experimental: as §1

[11] = tested on: HMLE; test: Anti-proliferation assay, HMLE (normal)
Experimental: as §1

[12] = Homo sapiens, SK-BR-3, Table 5, alkylether derivatives with cyclic N-substitutions, read-out: SKBr3
[13] = Homo sapiens, MCF7, Table 5, alkylether derivatives with cyclic N-substitutions, read-out: MCF-7
[14] = Homo sapiens, SK-BR-3, Table 8, biphenyl ureas, Breast Cancer, read-out: IC50 SKBr3
[15] = Homo sapiens, MCF7, Table 8, biphenyl ureas, Breast Cancer, read-out: IC50 MCF-3
[16] = Table 3, cycloamine analogues, read-out: SKBr3
[17] = Table 3, cycloamine analogues, read-out: MCF-7
[18] = Table 9, non-aryl ureas, Breast Cancer, read-out: IC50 SKBr3
[19] = Table 9, non-aryl ureas, Breast Cancer, read-out: IC50 MCF-3
[20] = Homo sapiens, SK-BR-3, Table 6, substituted phenyl ureas, Breast Cancer, read-out: IC50 SKBr3
[21] = Homo sapiens, MCF7, Table 6, substituted phenyl ureas, Breast Cancer, read-out: IC50 MCF-3
[22] = Homo sapiens, PC-3, Table 6, substituted phenyl ureas
[23] = Homo sapiens, A549, Table 6, substituted phenyl ureas
[24] = MDA1986, Table 6, substituted phenyl ureas
[25] = JMAR, Table 6, substituted phenyl ureas
[26] = Homo sapiens, MDA-MB-231, Table 6, substituted phenyl ureas
[27] = Table 6, substituted phenyl ureas
[28] = Homo sapiens, MRC5, Table 6, substituted phenyl ureas
[29] = HMLE, Table 6, substituted phenyl ureas

IC50 [1, 12]: 660 ± 120 nM
IC50 [2, 13]: 1070 ± 350 nM
SMILES: CC(C)=CCc1cc(C(=O)Nc2cc3ccc(OCCCNC4CCCCC4)c(C)c3oc2=O)ccc1O [Compound 70a, N-(7-(3-(cyclohexylamino)propoxy)-8-methyl-2-oxo-2H-chromen-3-yl)-4-hydroxy-3-(3-methylbut-2-en-1-yl)benzamide]

IC50 ([1]; Table 5, alkylether derivatives with cyclic N-substitutions, read-out: SKBr3): 970 ± 30 nM
IC50 ([2]; Table 5, alkylether derivatives with cyclic N-substitutions, read-out: MCF-7): 1080 ± 70 nM
SMILES: CC(C)=CCc1cc(C(=O)Nc2cc3ccc(OCCCN(C)C4CCCCC4)c(C)c3oc2=O)ccc1O [Compound 70b]

IC50 [1, 12]: 470 ± 160 nM
IC50 [2, 13]: 910 ± 10 nM
SMILES: CC(C)=CCc1cc(C(=O)Nc2cc3ccc(OCCCNCc4ccccc4)c(C)c3oc2=O)ccc1O [Compound 70e, N-(7-(3-(benzylamino)propoxy)-8-methyl-2-oxo-2H-chromen-3-yl)-4-hydroxy-3-(3-methylbut-2-en-1-yl)benzamide]

IC50 [1, 12]: 1000 ± 310 nM
IC50 [2, 13]: 1450 ± 200 nM
SMILES: CC(C)=CCc1cc(C(=O)Nc2cc3ccc(OCCCN(C)[C@H](C)c4ccccc4)c(C)c3oc2=O)ccc1O [Compound 70f, (R)-4-hydroxy-N-(8-methyl-7-(3-(methyl(1-phenylethyl)amino)propoxy)-2-oxo-2H-chromen-3-yl)-3-(3-methylbut-2-en-1-yl)benzamide]

IC50 [1, 12]: 960 ± 10 nM
IC50 [2, 13]: 1070 ± 10 nM
SMILES: CC(C)=CCc1cc(C(=O)Nc2cc3ccc(OCCCNC(C)(C)c4ccccc4)c(C)c3oc2=O)ccc1O [Compound 70g, 4-hydroxy-N-(8-methyl-2-oxo-7-(3-((2-phenylpropan-2-yl)amino)propoxy)-2H-chromen-3-yl)-3-(3-methylbut-2-en-1-yl)benzamide]

IC50 [1, 12]: 770 ± 130 nM
IC50 [2, 13]: 1030 ± 120 nM
SMILES: CC(C)=CCc1cc(C(=O)Nc2cc3ccc(OCCCNC4C[C@H]5CC[C@@H]4C5)c(C)c3oc2=O)ccc1O (stereo partly drawn) [Compound 70i, N-(7-(3-((1R,4S)-bicyclo[2.2.1]heptan-2-ylamino)propoxy)-8-methyl-2-oxo-2H-chromen-3-yl)-4-hydroxy-3-(3-methylbut-2-en-1-yl)benzamide]

IC50 [1, 14]: 380 nM
IC50 [2, 15]: 320 nM
SMILES: Cc1c(OC2CCN(C)CC2)ccc2cc(NC(=O)Nc3cccc(-c4ccccc4)c3)c(=O)oc12 [H, H, 1-([1,1′-biphenyl]-3-yl)-3-(8-methyl-7-((1-methylpiperidin-4-yl)oxy)-2-oxo-2H-chromen-3-yl)urea]

IC50 [1, 14]: 440 nM
IC50 [2, 15]: 370 nM
SMILES: COc1cccc(-c2cccc(NC(=O)Nc3cc4ccc(OC5CCN(C)CC5)c(C)c4oc3=O)c2)c1 [H, OMe, 1-(3′-methoxy-[1,1′-biphenyl]-3-yl)-3-(8-methyl-7-((1-methylpiperidin-4-yl)oxy)-2-oxo-2H-chromen-3-yl)urea]

IC50 [1, 14]: 450 nM
IC50 [2, 15]: 930 nM
SMILES: COc1ccc(NC(=O)Nc2cc3ccc(OC4CCN(C)CC4)c(C)c3oc2=O)cc1-c1ccccc1 [OMe, H, 1-(6-methoxy-[1,1′-biphenyl]-3-yl)-3-(8-methyl-7-((1-methylpiperidin-4-yl)oxy)-2-oxo-2H-chromen-3-yl)urea]

IC50 [1, 16]: 1010 ± 30 nM
IC50 [2, 17]: 1200 ± 120 nM
SMILES: CC(C)=CCc1cc(C(=O)Nc2cc3ccc(OCCCN4CCN(C)CC4)c(C)c3oc2=O)ccc1O [drawing 143]

SMILES: CC(C)=CCc1cc(C(=O)Nc2cc3ccc(OCCCN4CCOCC4)c(C)c3oc2=O)ccc1O [drawing 145]
IC50 [1, 16]: > 50000 nM
IC50 [2, 17]: > 50000 nM

IC50 [1, 16]: > 50000 nM
IC50 [2, 17]: > 50000 nM
SMILES: CC(C)=CCc1cc(C(=O)Nc2cc3ccc(OCCCN4CCCCC4)c(C)c3oc2=O)ccc1O [drawing 146]

IC50 [1, 16]: 720 ± 10 nM
IC50 [2, 17]: 990 ± 40 nM
SMILES: CC(C)=CCc1cc(C(=O)Nc2cc3ccc(OCCCN4CCCC4)c(C)c3oc2=O)ccc1O [drawing 147]

IC50 [1, 18]: 2390 ± 350 nM
IC50 [2, 19]: 3830 ± 330 nM
IC50 [3]: 7.87 ± 7.97 µM
IC50 ([4]; Table 9, non-aryl ureas): 2160 ± 1170 nM
IC50 ([5]; Table 9, non-aryl ureas): 1240 ± 940 nM
IC50 ([8]; Table 9, non-aryl ureas): 650 nM
SMILES: Cc1c(OC2CCN(C)CC2)ccc2cc(NC(=O)NC3CCCC3)c(=O)oc12 [drawing 154]
IC50 ([6]; Table 9, non-aryl ureas): > 25 µM
IC50 ([7]; Table 9, non-aryl ureas): > 25 µM
IC50 ([9]; Table 9, non-aryl ureas): 8.8 µM

SMILES: Cc1c(OC2CCN(C)CC2)ccc2cc(NC(=O)NC3CCCCC3)c(=O)oc12 [drawing 155]
IC50 [1, 18]: 3830 ± 330 nM
IC50 [2, 19]: 3840 ± 310 nM
IC50 [3]: 9.21 ± 6.54 µM
IC50 ([4]; Table 9, non-aryl ureas): 1670 nM
IC50 ([5]; Table 9, non-aryl ureas): > 100000 nM
IC50 ([6]; Table 9, non-aryl ureas): > 25 µM
IC50 ([7]; Table 9, non-aryl ureas): > 25 µM
IC50 ([8]; Table 9, non-aryl ureas): > 25000 nM
IC50 ([9]; Table 9, non-aryl ureas): > 25 µM

SMILES: Cc1c(OC2CCN(C)CC2)ccc2cc(NC(=O)NC34CC5CC(CC(C5)C3)C4)c(=O)oc12 [drawing 156]
IC50 [3]: 0.082 ± 0.035 µM
IC50 ([4]; Table 9, non-aryl ureas): 19 ± 3 nM
IC50 ([5]; Table 9, non-aryl ureas): 10 ± 10 nM
IC50 ([6]; Table 9, non-aryl ureas): 5.9 µM
IC50 ([7]; Table 9, non-aryl ureas): 6.2 µM
IC50 ([8]; Table 9, non-aryl ureas): 3000 nM
IC50 ([9]; Table 9, non-aryl ureas): 18.7 µM

SMILES: Cc1c(OC2CCN(C)CC2)ccc2cc(NC(=O)NC3CCCC3)c(=O)oc12 [drawing 167]
IC50 ([10]; Table 9, non-aryl ureas): > 25 µM
IC50 ([11]; Table 9, non-aryl ureas): > 25 µM

SMILES: Cc1c(OC2CCN(C)CC2)ccc2cc(NC(=O)NC3CCCCC3)c(=O)oc12 [drawing 168]
IC50 ([10]; Table 9, non-aryl ureas): > 25 µM
IC50 ([11]; Table 9, non-aryl ureas): > 25 µM

SMILES: Cc1c(OC2CCN(C)CC2)ccc2cc(NC(=O)NC34CC5CC(CC(C5)C3)C4)c(=O)oc12 [drawing 169]
IC50 ([10]; Table 9, non-aryl ureas): 3.8 µM
IC50 ([11]; Table 9, non-aryl ureas): > 25 µM

SMILES: Cc1c(OC2CCN(C)CC2)ccc2cc(NC(=O)NC(C)(C)C)c(=O)oc12 [drawing 170]
IC50 ([10]; Table 9, non-aryl ureas): 21.1 µM
IC50 ([11]; Table 9, non-aryl ureas): > 25 µM

SMILES: Cc1c(OC2CCN(C)CC2)ccc2cc(NC(=O)N3CCN(C)CC3)c(=O)oc12 [drawing 171]
IC50 ([10]; Table 9, non-aryl ureas): > 25 µM
IC50 ([11]; Table 9, non-aryl ureas): > 25 µM

SMILES: Cc1c(OC2CCN(C)CC2)ccc2cc(NC(=O)NCc3ccccc3)c(=O)oc12 [drawing 172]
IC50 ([10]; Table 9, non-aryl ureas): 20.9 µM
IC50 ([11]; Table 9, non-aryl ureas): > 25 µM

SMILES: Cc1c(OC2CCN(C)CC2)ccc2cc(NC(=O)N(C)Cc3ccccc3)c(=O)oc12 [drawing 173]
IC50 ([10]; Table 9, non-aryl ureas): > 25 µM
IC50 ([11]; Table 9, non-aryl ureas): > 25 µM

SMILES: Cc1c(OC2CCN(C)CC2)ccc2cc(NC(=O)N(Cc3ccccc3)Cc3ccccc3)c(=O)oc12 [drawing 174]
IC50 ([10]; Table 9, non-aryl ureas): 20.9 µM
IC50 ([11]; Table 9, non-aryl ureas): 7.1 µM

SMILES: Cc1c(OC2CCN(C)CC2)ccc2cc(NC(=O)NC(c3ccccc3)c3ccccc3)c(=O)oc12 [drawing 175]
IC50 ([10]; Table 9, non-aryl ureas): 15.5 µM
IC50 ([11]; Table 9, non-aryl ureas): 1.6 µM

IC50 [1, 20]: 260 nM
IC50 [2, 21]: 280 nM
IC50 [4, 22]: 43 nM
IC50 [5, 23]: 46 nM
IC50 [8, 26]: 550 nM
SMILES: Cc1c(OC2CCN(C)CC2)ccc2cc(NC(=O)Nc3cccc(C(F)(F)F)c3)c(=O)oc12 [m-CF3, 1-(8-methyl-7-((1-methylpiperidin-4-yl)oxy)-2-oxo-2H-chromen-3-yl)-3-(3-(trifluoromethyl)phenyl)urea]
IC50 [6, 24]: 0.15 µM
IC50 [7, 25]: 1.7 µM
IC50 [9, 27]: 7.3 µM
IC50 [10, 28]: 1.6 µM
IC50 [11, 29]: 16.8 µM

IC50 ([1]; Table 6, substituted phenyl ureas, Breast Cancer, read-out: IC50 SKBr3): 1150 nM
IC50 ([2]; Table 6, substituted phenyl ureas, Breast Cancer, read-out: IC50 MCF-3): 960 nM
SMILES: COc1cccc(NC(=O)Nc2cc3ccc(OC4CCN(C)CC4)c(C)c3oc2=O)c1 [m-OCH3]

IC50 [1, 20]: 190 nM
IC50 [2, 21]: 280 nM
IC50 [4, 22]: 2160 nM
IC50 [5, 23]: 1020 nM
IC50 [8, 26]: 280 nM
SMILES: Cc1c(OC2CCN(C)CC2)ccc2cc(NC(=O)Nc3cccc(Oc4ccccc4)c3)c(=O)oc12 [m-phenoxyl, 1-(8-methyl-7-((1-methylpiperidin-4-yl)oxy)-2-oxo-2H-chromen-3-yl)-3-(3-phenoxyphenyl)urea]
IC50 [6, 24]: 0.57 µM
IC50 [7, 25]: 2.4 µM
IC50 [9, 27]: 3.1 µM
IC50 [10, 28]: 2.2 µM
IC50 [11, 29]: 5.2 µM

IC50 [1, 20]: 1380 nM
IC50 [2, 21]: 1340 nM
SMILES: Cc1c(OC2CCN(C)CC2)ccc2cc(NC(=O)Nc3ccc(O)cc3)c(=O)oc12 [p-OH, 1-(4-hydroxyphenyl)-3-(8-methyl-7-((1-methylpiperidin-4-yl)oxy)-2-oxo-2H-chromen-3-yl)urea]
